Here are results for three compounds from ChEMBL document CHEMBL5696442, “Discovery of type II inhibitors of TGFβ-activated kinase 1 (TAK1) and mitogen-activated protein kinase kinase kinase kinase 2 (MAP4K2)” (J Med Chem, 2015).

The structures appear in SMILES notation. Activity calls are given as the source filed them. The calls are words filed in the database; no cut-off is given here.

Experiment [1] concerns the target T1, Serine/threonine-protein kinase ULK3 (Homo sapiens) (UniProt Q6PHR2).
T1 sequence (whole entry): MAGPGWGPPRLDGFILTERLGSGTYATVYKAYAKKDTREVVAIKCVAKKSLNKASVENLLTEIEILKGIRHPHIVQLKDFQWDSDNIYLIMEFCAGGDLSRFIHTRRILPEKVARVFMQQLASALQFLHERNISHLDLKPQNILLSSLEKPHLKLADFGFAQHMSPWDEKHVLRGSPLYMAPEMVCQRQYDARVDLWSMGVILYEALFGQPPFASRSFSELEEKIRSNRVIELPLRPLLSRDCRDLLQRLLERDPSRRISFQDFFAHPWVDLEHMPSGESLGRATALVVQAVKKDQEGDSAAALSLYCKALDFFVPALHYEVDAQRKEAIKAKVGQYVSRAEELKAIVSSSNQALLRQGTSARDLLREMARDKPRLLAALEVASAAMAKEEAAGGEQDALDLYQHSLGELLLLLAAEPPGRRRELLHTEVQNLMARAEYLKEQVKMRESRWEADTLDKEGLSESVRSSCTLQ
The experiment in a line: Inhibition of ULK3 (unknown origin) at 1 uM by Ambit Kinomescan binding assay relative to control.

In experiment [2] the target is Tyrosine-protein kinase Fyn (Homo sapiens) (UniProt P06241). The experiment in a line: Inhibition of FYN (unknown origin) at 1 uM by Ambit Kinomescan binding assay relative to control; values are per cent of control.
Experiment [3] addresses Non-receptor tyrosine-protein kinase TYK2 (Homo sapiens) (UniProt P29597). The experiment in a line: Inhibition of TYK2 JH1catalytic domain (unknown origin) at 1 uM by Ambit Kinomescan binding assay relative to control.
Experiment [4] deals with T2, Phosphatidylinositol 5-phosphate 4-kinase type-2 alpha (Homo sapiens) (UniProt P48426).
T2 sequence (whole entry): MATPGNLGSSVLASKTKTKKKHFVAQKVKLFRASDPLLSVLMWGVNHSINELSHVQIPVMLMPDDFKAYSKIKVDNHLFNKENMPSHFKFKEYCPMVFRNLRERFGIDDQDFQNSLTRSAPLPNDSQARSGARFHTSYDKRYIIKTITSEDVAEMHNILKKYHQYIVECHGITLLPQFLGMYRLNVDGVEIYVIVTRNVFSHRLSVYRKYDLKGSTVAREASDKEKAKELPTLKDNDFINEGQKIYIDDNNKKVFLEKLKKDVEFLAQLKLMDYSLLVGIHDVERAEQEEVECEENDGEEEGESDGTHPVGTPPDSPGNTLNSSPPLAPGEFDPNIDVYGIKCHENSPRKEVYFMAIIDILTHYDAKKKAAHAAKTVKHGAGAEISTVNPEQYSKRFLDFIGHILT
The experiment in a line: Inhibition of PIP5K2A C2 labeling site in human Huh-7 cells at 10 uM by KiNativ Profiling analysis relative to control. The experiment is classed as cell-based.

For experiment [5], the target named is Glycogen synthase kinase-3 beta (Homo sapiens) (UniProt P49841). The experiment in a line: Inhibition of GSK3B K2 labeling site in human Huh-7 cells at 1 uM by KiNativ Profiling analysis relative to control. The format is cell-based.
Glycogen synthase kinase-3 beta (Homo sapiens), sequence (P49841 whole entry, looked up): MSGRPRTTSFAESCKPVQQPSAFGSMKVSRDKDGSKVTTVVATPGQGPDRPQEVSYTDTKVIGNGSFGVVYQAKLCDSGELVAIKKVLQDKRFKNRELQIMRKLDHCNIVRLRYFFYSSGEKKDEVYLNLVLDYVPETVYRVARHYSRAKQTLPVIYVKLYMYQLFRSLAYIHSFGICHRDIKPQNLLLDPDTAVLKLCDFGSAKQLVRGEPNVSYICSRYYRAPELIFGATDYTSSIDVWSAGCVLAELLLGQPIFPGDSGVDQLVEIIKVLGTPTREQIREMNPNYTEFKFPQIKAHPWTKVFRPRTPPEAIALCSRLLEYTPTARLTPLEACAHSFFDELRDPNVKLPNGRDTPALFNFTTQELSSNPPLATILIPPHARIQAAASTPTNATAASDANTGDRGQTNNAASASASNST
Experiment [6] has as its target T3, Inhibitor of nuclear factor kappa-B kinase subunit epsilon (Homo sapiens) (UniProt Q14164).
T3 sequence (whole entry): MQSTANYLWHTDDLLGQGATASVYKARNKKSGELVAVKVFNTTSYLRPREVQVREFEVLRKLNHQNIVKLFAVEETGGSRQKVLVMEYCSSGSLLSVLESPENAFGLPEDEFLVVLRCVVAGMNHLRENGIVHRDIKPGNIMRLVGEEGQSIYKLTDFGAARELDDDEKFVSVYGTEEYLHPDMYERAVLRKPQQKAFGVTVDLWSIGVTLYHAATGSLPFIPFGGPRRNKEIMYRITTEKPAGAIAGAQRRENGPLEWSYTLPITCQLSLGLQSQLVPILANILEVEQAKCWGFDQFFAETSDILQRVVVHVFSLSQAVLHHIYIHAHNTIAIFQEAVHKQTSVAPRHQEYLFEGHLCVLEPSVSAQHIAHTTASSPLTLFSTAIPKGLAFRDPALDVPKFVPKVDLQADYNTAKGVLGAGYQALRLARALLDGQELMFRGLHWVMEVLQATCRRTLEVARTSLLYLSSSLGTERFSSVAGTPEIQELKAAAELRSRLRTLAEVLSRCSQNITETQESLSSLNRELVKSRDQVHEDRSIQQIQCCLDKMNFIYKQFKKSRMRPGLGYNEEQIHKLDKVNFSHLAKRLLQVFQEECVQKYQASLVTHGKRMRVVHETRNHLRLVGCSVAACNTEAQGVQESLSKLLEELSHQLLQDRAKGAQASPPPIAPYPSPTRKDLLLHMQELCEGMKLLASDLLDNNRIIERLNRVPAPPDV
The experiment in a line: Inhibition of IKKe Lys1 labeling site in human A-375 cells at 5 uM by KiNativ Profiling analysis relative to control. The experiment is classed as cell-based.

Experiment [7] deals with Interferon-induced, double-stranded RNA-activated protein kinase (Homo sapiens) (UniProt P19525). The experiment in a line: Inhibition of PKR K2 labeling site in human Huh-7 cells at 1 uM by KiNativ Profiling analysis relative to control. The experiment is classed as cell-based.
Interferon-induced, double-stranded RNA-activated protein kinase (Homo sapiens), sequence (P19525 whole entry): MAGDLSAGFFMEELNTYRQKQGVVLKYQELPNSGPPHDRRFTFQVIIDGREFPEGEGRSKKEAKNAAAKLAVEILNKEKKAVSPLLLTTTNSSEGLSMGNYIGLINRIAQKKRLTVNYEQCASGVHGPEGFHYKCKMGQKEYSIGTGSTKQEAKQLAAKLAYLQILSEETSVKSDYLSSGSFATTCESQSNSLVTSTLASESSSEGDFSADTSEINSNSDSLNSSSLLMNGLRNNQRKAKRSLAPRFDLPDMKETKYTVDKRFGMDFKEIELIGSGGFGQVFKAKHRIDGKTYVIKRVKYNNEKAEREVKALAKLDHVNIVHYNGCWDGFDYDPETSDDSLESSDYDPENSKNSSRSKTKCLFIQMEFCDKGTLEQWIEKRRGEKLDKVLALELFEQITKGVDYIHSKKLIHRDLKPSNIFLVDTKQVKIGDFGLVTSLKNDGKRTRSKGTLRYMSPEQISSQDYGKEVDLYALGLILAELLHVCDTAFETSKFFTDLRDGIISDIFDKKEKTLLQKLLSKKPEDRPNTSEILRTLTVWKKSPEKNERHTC
Experiment [8] addresses Ephrin type-A receptor 1 (Homo sapiens) (UniProt P21709). The experiment in a line: Inhibition of EPHA1 (unknown origin) at 10 uM by Ambit Kinomescan binding assay.
The target in experiment [9] is Serine/threonine-protein kinase 26 (Homo sapiens) (UniProt Q9P289). The experiment in a line: Inhibition of MST4 ATP labeling site in human Huh-7 cells at 1 uM by KiNativ Profiling analysis relative to control. The format is cell-based.
The target in experiment [10] is Cyclin-dependent kinase 17 (Homo sapiens) (UniProt Q00537). The experiment in a line: Inhibition of PCTK2 (unknown origin) at 10 uM by Ambit Kinomescan binding assay relative to control.
Cyclin-dependent kinase 17 (Homo sapiens), sequence (Q00537 whole entry, looked up): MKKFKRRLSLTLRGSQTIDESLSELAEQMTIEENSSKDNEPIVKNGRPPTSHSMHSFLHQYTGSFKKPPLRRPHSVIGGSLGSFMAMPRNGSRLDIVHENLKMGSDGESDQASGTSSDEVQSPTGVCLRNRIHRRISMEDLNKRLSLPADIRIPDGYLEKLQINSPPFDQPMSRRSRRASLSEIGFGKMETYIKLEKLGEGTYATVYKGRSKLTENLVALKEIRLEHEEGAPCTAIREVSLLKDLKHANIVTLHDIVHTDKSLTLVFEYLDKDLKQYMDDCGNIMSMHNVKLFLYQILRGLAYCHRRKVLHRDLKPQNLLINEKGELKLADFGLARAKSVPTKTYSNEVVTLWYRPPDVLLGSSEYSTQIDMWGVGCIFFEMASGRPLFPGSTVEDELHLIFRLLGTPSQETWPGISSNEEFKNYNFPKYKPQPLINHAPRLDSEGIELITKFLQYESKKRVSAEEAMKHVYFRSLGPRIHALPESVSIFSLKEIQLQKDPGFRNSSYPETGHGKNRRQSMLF
Experiment [11] deals with Mitogen-activated protein kinase kinase kinase 4 (Homo sapiens) (UniProt Q9Y6R4). The experiment in a line: Inhibition of MAP3K4 Lys2 labeling site in human Huh-7 cell lysate at 1 uM by KiNativ Profiling analysis relative to control. The format is subcellular.
Experiment [12] concerns the target Cyclin-dependent kinase 6 (Homo sapiens) (UniProt Q00534). The experiment in a line: Inhibition of CDK6 Lys2 labeling site in human Huh-7 cells at 1 uM by KiNativ Profiling analysis relative to control. The format is cell-based.
In experiment [13] the target is Cyclin-dependent kinase 7 (Homo sapiens) (UniProt P50613). The experiment in a line: Inhibition of CDK7 Lys2 labeling site in human Huh-7 cells at 1 uM by KiNativ Profiling analysis relative to control. The experiment is classed as cell-based.
Cyclin-dependent kinase 7 (Homo sapiens), sequence (P50613 whole entry): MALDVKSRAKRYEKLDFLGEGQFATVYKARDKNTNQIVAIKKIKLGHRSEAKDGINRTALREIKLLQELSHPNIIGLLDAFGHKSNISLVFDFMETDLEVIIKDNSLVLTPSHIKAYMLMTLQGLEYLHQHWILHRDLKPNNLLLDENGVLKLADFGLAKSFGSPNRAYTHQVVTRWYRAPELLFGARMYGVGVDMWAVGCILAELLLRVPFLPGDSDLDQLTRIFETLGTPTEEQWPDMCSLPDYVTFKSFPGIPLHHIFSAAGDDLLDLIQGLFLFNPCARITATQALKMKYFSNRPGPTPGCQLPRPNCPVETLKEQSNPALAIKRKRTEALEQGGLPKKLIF
Experiment [14] has as its target Hepatocyte growth factor receptor (Homo sapiens) (UniProt P08581). The experiment in a line: Inhibition of MET ACT labeling site in human Huh-7 cell lysate at 1 uM by KiNativ Profiling analysis relative to control. The format is subcellular.
The target of experiment [15] is Calcium/calmodulin-dependent protein kinase type II subunit gamma (Homo sapiens) (UniProt Q13555). The experiment in a line: Inhibition of CaMK2g Lys1 labeling site harbouring TSTQEYAAKIINTK in human Huh-7 cells at 1 uM by KiNativ Profiling analysis relative to control. The experiment is classed as cell-based.
For experiment [16], the target named is MAP/microtubule affinity-regulating kinase 3 (Homo sapiens) (UniProt P27448). The experiment in a line: Inhibition of MARK3 Lys2 labeling site in human Huh-7 cell lysate at 1 uM by KiNativ Profiling analysis relative to control. The format is subcellular.
MAP/microtubule affinity-regulating kinase 3 (Homo sapiens), sequence (P27448 whole entry, looked up): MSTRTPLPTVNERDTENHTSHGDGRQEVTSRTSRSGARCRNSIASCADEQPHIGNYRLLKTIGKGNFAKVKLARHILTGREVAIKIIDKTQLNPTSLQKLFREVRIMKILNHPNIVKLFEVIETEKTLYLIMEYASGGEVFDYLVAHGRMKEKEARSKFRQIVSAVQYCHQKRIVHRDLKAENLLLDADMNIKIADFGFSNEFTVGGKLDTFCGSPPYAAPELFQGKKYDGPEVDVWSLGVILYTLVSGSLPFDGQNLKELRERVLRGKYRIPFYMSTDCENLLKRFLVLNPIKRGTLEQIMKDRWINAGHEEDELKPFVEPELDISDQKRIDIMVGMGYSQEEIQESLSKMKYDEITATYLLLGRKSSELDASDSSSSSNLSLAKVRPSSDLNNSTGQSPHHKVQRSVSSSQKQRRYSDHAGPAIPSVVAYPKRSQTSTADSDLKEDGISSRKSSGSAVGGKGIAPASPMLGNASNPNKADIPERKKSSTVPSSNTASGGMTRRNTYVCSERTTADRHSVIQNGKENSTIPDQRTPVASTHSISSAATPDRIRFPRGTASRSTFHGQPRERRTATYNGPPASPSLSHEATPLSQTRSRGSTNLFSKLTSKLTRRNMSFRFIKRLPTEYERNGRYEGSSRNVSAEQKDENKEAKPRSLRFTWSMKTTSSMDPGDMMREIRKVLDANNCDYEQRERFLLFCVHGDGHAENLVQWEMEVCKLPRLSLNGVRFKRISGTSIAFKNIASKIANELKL

Non-receptor tyrosine-protein kinase TYK2 (Homo sapiens), sequence (P29597 whole entry, the tested form may be a part): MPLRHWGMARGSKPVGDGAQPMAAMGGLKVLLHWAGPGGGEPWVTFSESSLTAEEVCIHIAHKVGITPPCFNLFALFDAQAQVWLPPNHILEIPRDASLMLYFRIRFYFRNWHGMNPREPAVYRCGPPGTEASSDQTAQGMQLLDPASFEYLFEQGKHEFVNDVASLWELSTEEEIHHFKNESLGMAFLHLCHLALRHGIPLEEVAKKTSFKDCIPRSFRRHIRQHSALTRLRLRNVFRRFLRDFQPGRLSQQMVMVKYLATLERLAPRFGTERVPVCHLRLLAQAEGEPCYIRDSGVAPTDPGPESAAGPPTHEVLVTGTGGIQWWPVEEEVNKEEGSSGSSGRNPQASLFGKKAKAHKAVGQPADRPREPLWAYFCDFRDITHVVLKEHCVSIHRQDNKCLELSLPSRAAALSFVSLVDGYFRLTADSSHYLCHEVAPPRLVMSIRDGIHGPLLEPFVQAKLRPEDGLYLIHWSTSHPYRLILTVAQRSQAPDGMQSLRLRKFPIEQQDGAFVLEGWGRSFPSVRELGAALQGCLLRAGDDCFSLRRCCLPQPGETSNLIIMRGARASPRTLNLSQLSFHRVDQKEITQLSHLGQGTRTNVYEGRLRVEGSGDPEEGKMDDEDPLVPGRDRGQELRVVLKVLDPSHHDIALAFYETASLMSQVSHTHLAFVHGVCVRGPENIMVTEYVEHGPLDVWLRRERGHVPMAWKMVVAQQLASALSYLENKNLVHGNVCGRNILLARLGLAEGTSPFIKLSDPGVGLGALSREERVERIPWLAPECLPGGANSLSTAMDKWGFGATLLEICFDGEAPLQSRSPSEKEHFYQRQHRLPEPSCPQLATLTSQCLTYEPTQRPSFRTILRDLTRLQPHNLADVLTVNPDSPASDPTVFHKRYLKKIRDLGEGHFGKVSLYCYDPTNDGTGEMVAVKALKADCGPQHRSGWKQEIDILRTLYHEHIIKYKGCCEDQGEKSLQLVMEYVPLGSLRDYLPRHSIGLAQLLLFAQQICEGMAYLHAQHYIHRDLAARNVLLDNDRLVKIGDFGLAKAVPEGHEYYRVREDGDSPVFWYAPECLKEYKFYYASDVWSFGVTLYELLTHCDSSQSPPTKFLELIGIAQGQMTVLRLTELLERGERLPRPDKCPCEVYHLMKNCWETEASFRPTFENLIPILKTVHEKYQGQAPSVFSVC
Ephrin type-A receptor 1 (Homo sapiens), sequence (P21709 whole entry): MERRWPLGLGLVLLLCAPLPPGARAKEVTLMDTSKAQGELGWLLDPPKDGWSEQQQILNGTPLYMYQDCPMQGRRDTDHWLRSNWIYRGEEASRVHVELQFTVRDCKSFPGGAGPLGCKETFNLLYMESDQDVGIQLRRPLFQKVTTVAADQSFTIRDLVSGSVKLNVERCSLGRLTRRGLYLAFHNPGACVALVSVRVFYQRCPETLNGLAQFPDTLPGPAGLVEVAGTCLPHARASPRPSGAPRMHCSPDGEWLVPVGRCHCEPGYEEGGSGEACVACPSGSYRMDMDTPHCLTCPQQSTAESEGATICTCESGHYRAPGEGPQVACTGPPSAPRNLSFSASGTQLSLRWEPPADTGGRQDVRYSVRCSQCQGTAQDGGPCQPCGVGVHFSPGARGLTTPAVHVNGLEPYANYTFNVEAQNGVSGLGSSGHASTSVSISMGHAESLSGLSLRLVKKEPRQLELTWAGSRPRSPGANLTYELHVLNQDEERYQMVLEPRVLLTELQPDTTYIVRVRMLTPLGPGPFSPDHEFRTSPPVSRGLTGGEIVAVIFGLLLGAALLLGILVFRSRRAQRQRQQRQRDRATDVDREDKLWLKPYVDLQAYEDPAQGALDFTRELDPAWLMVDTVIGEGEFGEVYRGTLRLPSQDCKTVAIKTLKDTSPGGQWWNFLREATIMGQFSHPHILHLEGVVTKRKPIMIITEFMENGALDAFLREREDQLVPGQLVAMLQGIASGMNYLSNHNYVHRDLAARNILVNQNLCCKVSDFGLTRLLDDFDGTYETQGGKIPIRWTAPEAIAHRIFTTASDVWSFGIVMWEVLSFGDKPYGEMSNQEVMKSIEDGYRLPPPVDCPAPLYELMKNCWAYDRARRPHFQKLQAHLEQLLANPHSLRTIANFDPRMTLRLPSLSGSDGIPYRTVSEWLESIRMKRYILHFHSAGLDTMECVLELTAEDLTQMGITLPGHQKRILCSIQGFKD

Take `CCN1CCN(Cc2ccc(NC(=O)c3ccc(C)c(/C=C/c4cnc5[nH]ccc5c4OC)c3)cc2C(F)(F)F)CC1`: the inhibition in experiment [1] amounted to 55%; in experiment [3] it was 70%. The compound further displayed a percent of control in experiment [2] of 5.2%.

As for `CCN1CCN(Cc2ccc(NC(=O)c3ccc(C)c(Oc4ccnc5[nH]ccc45)c3)cc2C(F)(F)F)CC1`, the inhibition in experiment [4] was 1.3%; in [5], 2.9%; in [6] it was 0.8%; in [7], 4%; in experiment [9] it was 18%; in experiment [10], 0.1%. For the same compound, the inhibition result in experiment [8] is “inactive”.

For `CNc1cc(Oc2cc(C(=O)Nc3cc(N4CCN(C)CC4)cc(C(F)(F)F)c3)ccc2C)ncn1`, the inhibition in experiment [11] is 0.5%; in experiment [12], 24.4%; in [13], 2.6%; in experiment [14], 2%; in [15], 27.1%; in experiment [16], -4.1%.

By inhibition is commonly meant the change of the read-out against control, counted positive when it falls.
